Experimental data taken from patent publication US9241491B2, “Aerosol” (SABAN VENTURES PTY LIMITED, priority 2005, dated 2016).

Experiments:
[1] = system: Spore strips; settings: atmospheric pressure, below 80° C.; could not be achieved in less; cited from earlier work
[2] = Maximum peroxide concentration (peroxide density) in gas phase; assay type: physicochemical; settings: for maximum achievable concentration for vapour systems: no evacuation; for Max. peroxide vapour concentration: initial 35% H2O2 solution

Q: With `OO` [hydrogen peroxide vapour, hydrogen peroxide] as the molecule, how does the time to sterilization [1] read?
A: ≥ 6 h

Q: And the “maximum achievable concentration for vapour systems” value ([2]; 0% humidity)?
A: 2.0 mg/L

Q: And the “maximum achievable concentration for vapour systems” value ([2]; 25° C., 40% RH)?
A: 0.9 mg/L

Q: What about the “Max. peroxide vapour concentration” value ([2]; 20 ° C., 10% RH) of the same molecule?
A: 0.97 mg/L

Q: What about the “Max. peroxide vapour concentration” value ([2]; 20 ° C., 20% RH) of the same molecule?
A: 0.85 mg/L

Q: And the “Max. peroxide vapour concentration” value ([2]; 20 ° C., 40% RH)?
A: 0.62 mg/L

Q: What about the “Max. peroxide vapour concentration” value ([2]; 20 ° C., 80% RH) of the same molecule?
A: 0.14 mg/L

Q: What about the “Max. peroxide vapour concentration” value ([2]; 40 ° C., 10% RH) of the same molecule?
A: 4.13 mg/L

Q: What about the “Max. peroxide vapour concentration” value ([2]; 40 ° C., 20% RH) of the same molecule?
A: 2.59 mg/L

Q: What about the “Max. peroxide vapour concentration” value ([2]; 40 ° C., 40% RH) of the same molecule?
A: 2.66 mg/L

Q: What about the “Max. peroxide vapour concentration” value ([2]; 40 ° C., 80% RH) of the same molecule?
A: 0.63 mg/L

Q: And the “Max. peroxide vapour concentration” value ([2]; 60 ° C., 10% RH)?
A: 14.4 mg/L

Q: What about the “Max. peroxide vapour concentration” value ([2]; 60 ° C., 20% RH) of the same molecule?
A: 12.60 mg/L

Q: What about the “Max. peroxide vapour concentration” value ([2]; 60 ° C., 40% RH) of the same molecule?
A: 9.1 mg/L

Q: And the “Max. peroxide vapour concentration” value ([2]; 60 ° C., 80% RH)?
A: 2.31 mg/L
